{
  "source": "PubChem BioAssay AID2060898",
  "about": "(Molecular Pharmacology Branch, DTP, NCI, 2025);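 note: spheroids exposed to agents for seven days before viability readout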;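 for viability, T/C: 100% = DMSO vehicle control viability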",
  "system": "616215-338-R-J1-PDC complex spheroid viability",
  "test": "Anticancer human tumor 616215-338-R-J1-PDC patient-derived colon adenocarcinoma cell line growth inhibition [RAS]",
  "details": "for IC50: curve of first compound; for viability, T/C: stronger effect = lower value",
  "in_short": "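Multi-cell-type spheroids: tumor cells plus HUVEC endothelial cells and mesenchymal stem cells. RAS-pathway inhibitors were combined with targeted agents, each dosed in half-log steps down from clinical Cmax, or from 10 microM when Cmax was unknown.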",
  "data": [
    {"smiles": "C=CC(=O)N1CCN(c2nc(OCC3CCCN3C)nc3c(F)c(-c4nc(N)cc(C)c4C(F)(F)F)c(Cl)cc23)C(C)C1", "note": "(centres undefined) + C#Cc1c(F)ccc2cc(O)cc(-c3ncc4c(N5CC6CCC(C5)N6)nc(OCC56CCCN5CC(F)C6)nc4c3F)c12", "values": [
      {"measurement": "IC50", "setting": "second compound 0.0316 µM", "value": "> 1000", "unit": "nM"},
      {"measurement": "IC50", "setting": "second compound 0.1 µM", "value": "> 1000", "unit": "nM"},
      {"measurement": "IC50", "setting": "second compound 0.316 µM", "value": "> 1000", "unit": "nM"},
      {"measurement": "IC50", "setting": "second compound 1 µM", "value": "> 1000", "unit": "nM"},
      {"measurement": "IC50", "setting": "second compound 3.16 µM", "value": "> 1000", "unit": "nM"},
      {"measurement": "IC50", "setting": "second compound 10 µM", "value": "> 1000", "unit": "nM"},
      {"measurement": "viability, T/C", "setting": "second compound 0.0316 µM, first compound 0.00316 µM", "value": 107, "unit": "%"},
      {"measurement": "viability, T/C", "setting": "second compound 0.0316 µM, first compound 0.01 µM", "value": 112, "unit": "%"},
      {"measurement": "viability, T/C", "setting": "second compound 0.0316 µM, first compound 0.0316 µM", "value": 101, "unit": "%"},
      {"measurement": "viability, T/C", "setting": "second compound 0.0316 µM, first compound 0.1 µM", "value": 106, "unit": "%"},
      {"measurement": "viability, T/C", "setting": "second compound 0.0316 µM, first compound 0.316 µM", "value": 100, "unit": "%"},
      {"measurement": "viability, T/C", "setting": "second compound 0.0316 µM, first compound 1 µM", "value": 104, "unit": "%"},
      {"measurement": "viability, T/C", "setting": "second compound 0.1 µM, first compound 0.00316 µM", "value": 121, "unit": "%"},
      {"measurement": "viability, T/C", "setting": "second compound 0.1 µM, first compound 0.01 µM", "value": 105, "unit": "%"},
      {"measurement": "viability, T/C", "setting": "second compound 0.1 µM, first compound 0.0316 µM", "value": 109, "unit": "%"},
      {"measurement": "viability, T/C", "setting": "second compound 0.1 µM, first compound 0.1 µM", "value": 107, "unit": "%"},
      {"measurement": "viability, T/C", "setting": "second compound 0.1 µM, first compound 0.316 µM", "value": 108, "unit": "%"},
      {"measurement": "viability, T/C", "setting": "second compound 0.1 µM, first compound 1 µM", "value": 102, "unit": "%"},
      {"measurement": "viability, T/C", "setting": "second compound 0.316 µM, first compound 0.00316 µM", "value": 112, "unit": "%"},
      {"measurement": "viability, T/C", "setting": "second compound 0.316 µM, first compound 0.01 µM", "value": 104, "unit": "%"},
      {"measurement": "viability, T/C", "setting": "second compound 0.316 µM, first compound 0.0316 µM", "value": 109, "unit": "%"},
      {"measurement": "viability, T/C", "setting": "second compound 0.316 µM, first compound 0.1 µM", "value": 112, "unit": "%"},
      {"measurement": "viability, T/C", "setting": "second compound 0.316 µM, first compound 0.316 µM", "value": 107, "unit": "%"},
      {"measurement": "viability, T/C", "setting": "second compound 0.316 µM, first compound 1 µM", "value": 112, "unit": "%"},
      {"measurement": "viability, T/C", "setting": "second compound 1 µM, first compound 0.00316 µM", "value": 122, "unit": "%"},
      {"measurement": "viability, T/C", "setting": "second compound 1 µM, first compound 0.01 µM", "value": 123, "unit": "%"},
      {"measurement": "viability, T/C", "setting": "second compound 1 µM, first compound 0.0316 µM", "value": 114, "unit": "%"},
      {"measurement": "viability, T/C", "setting": "second compound 1 µM, first compound 0.1 µM", "value": 120, "unit": "%"},
      {"measurement": "viability, T/C", "setting": "second compound 1 µM, first compound 0.316 µM", "value": 124, "unit": "%"},
      {"measurement": "viability, T/C", "setting": "second compound 1 µM, first compound 1 µM", "value": 109, "unit": "%"},
      {"measurement": "viability, T/C", "setting": "second compound 3.16 µM, first compound 0.00316 µM", "value": 125, "unit": "%"},
      {"measurement": "viability, T/C", "setting": "second compound 3.16 µM, first compound 0.01 µM", "value": 107, "unit": "%"},
      {"measurement": "viability, T/C", "setting": "second compound 3.16 µM, first compound 0.0316 µM", "value": 109, "unit": "%"},
      {"measurement": "viability, T/C", "setting": "second compound 3.16 µM, first compound 0.1 µM", "value": 112, "unit": "%"},
      {"measurement": "viability, T/C", "setting": "second compound 3.16 µM, first compound 0.316 µM", "value": 109, "unit": "%"},
      {"measurement": "viability, T/C", "setting": "second compound 3.16 µM, first compound 1 µM", "value": 105, "unit": "%"},
      {"measurement": "viability, T/C", "setting": "second compound 10 µM, first compound 0.00316 µM", "value": 102, "unit": "%"},
      {"measurement": "viability, T/C", "setting": "second compound 10 µM, first compound 0.01 µM", "value": 93.8, "unit": "%"},
      {"measurement": "viability, T/C", "setting": "second compound 10 µM, first compound 0.0316 µM", "value": 92.8, "unit": "%"},
      {"measurement": "viability, T/C", "setting": "second compound 10 µM, first compound 0.1 µM", "value": 99.3, "unit": "%"},
      {"measurement": "viability, T/C", "setting": "second compound 10 µM, first compound 0.316 µM", "value": 110, "unit": "%"},
      {"measurement": "viability, T/C", "setting": "second compound 10 µM, first compound 1 µM", "value": 93, "unit": "%"}
    ]},
    {"smiles": "CC1(C)CCC(Nc2ncc(C(F)(F)F)c(-c3c[nH]c4c(P(C)(C)=O)c(C#N)ccc34)n2)CN1", "note": "(centres undefined) + C#Cc1c(F)ccc2cc(O)cc(-c3ncc4c(N5CC6CCC(C5)N6)nc(OCC56CCCN5CC(F)C6)nc4c3F)c12", "values": [
      {"measurement": "IC50", "setting": "second compound 0.0316 µM", "value": 19, "unit": "nM"},
      {"measurement": "IC50", "setting": "second compound 0.1 µM", "value": 13.4, "unit": "nM"},
      {"measurement": "IC50", "setting": "second compound 0.316 µM", "value": 18.9, "unit": "nM"},
      {"measurement": "IC50", "setting": "second compound 1 µM", "value": 10.7, "unit": "nM"},
      {"measurement": "IC50", "setting": "second compound 3.16 µM", "value": 8.28, "unit": "nM"},
      {"measurement": "IC50", "setting": "second compound 10 µM", "value": 5.91, "unit": "nM"},
      {"measurement": "viability, T/C", "setting": "second compound 0.0316 µM, first compound 0.000949 µM", "value": 103, "unit": "%"},
      {"measurement": "viability, T/C", "setting": "second compound 0.0316 µM, first compound 0.003 µM", "value": 112, "unit": "%"},
      {"measurement": "viability, T/C", "setting": "second compound 0.0316 µM, first compound 0.00949 µM", "value": 70.1, "unit": "%"},
      {"measurement": "viability, T/C", "setting": "second compound 0.0316 µM, first compound 0.03 µM", "value": 37.4, "unit": "%"},
      {"measurement": "viability, T/C", "setting": "second compound 0.0316 µM, first compound 0.0949 µM", "value": 35.9, "unit": "%"},
      {"measurement": "viability, T/C", "setting": "second compound 0.0316 µM, first compound 0.3 µM", "value": 36.8, "unit": "%"},
      {"measurement": "viability, T/C", "setting": "second compound 0.1 µM, first compound 0.000949 µM", "value": 107, "unit": "%"},
      {"measurement": "viability, T/C", "setting": "second compound 0.1 µM, first compound 0.003 µM", "value": 105, "unit": "%"},
      {"measurement": "viability, T/C", "setting": "second compound 0.1 µM, first compound 0.00949 µM", "value": 56.7, "unit": "%"},
      {"measurement": "viability, T/C", "setting": "second compound 0.1 µM, first compound 0.03 µM", "value": 37.7, "unit": "%"},
      {"measurement": "viability, T/C", "setting": "second compound 0.1 µM, first compound 0.0949 µM", "value": 31.8, "unit": "%"},
      {"measurement": "viability, T/C", "setting": "second compound 0.1 µM, first compound 0.3 µM", "value": 28.2, "unit": "%"},
      {"measurement": "viability, T/C", "setting": "second compound 0.316 µM, first compound 0.000949 µM", "value": 109, "unit": "%"},
      {"measurement": "viability, T/C", "setting": "second compound 0.316 µM, first compound 0.003 µM", "value": 105, "unit": "%"},
      {"measurement": "viability, T/C", "setting": "second compound 0.316 µM, first compound 0.00949 µM", "value": 66.5, "unit": "%"},
      {"measurement": "viability, T/C", "setting": "second compound 0.316 µM, first compound 0.03 µM", "value": 40.5, "unit": "%"},
      {"measurement": "viability, T/C", "setting": "second compound 0.316 µM, first compound 0.0949 µM", "value": 32.3, "unit": "%"},
      {"measurement": "viability, T/C", "setting": "second compound 0.316 µM, first compound 0.3 µM", "value": 31.9, "unit": "%"},
      {"measurement": "viability, T/C", "setting": "second compound 1 µM, first compound 0.000949 µM", "value": 117, "unit": "%"},
      {"measurement": "viability, T/C", "setting": "second compound 1 µM, first compound 0.003 µM", "value": 108, "unit": "%"},
      {"measurement": "viability, T/C", "setting": "second compound 1 µM, first compound 0.00949 µM", "value": 52.1, "unit": "%"},
      {"measurement": "viability, T/C", "setting": "second compound 1 µM, first compound 0.03 µM", "value": 31.2, "unit": "%"},
      {"measurement": "viability, T/C", "setting": "second compound 1 µM, first compound 0.0949 µM", "value": 27.8, "unit": "%"},
      {"measurement": "viability, T/C", "setting": "second compound 1 µM, first compound 0.3 µM", "value": 31.2, "unit": "%"},
      {"measurement": "viability, T/C", "setting": "second compound 3.16 µM, first compound 0.000949 µM", "value": 109, "unit": "%"},
      {"measurement": "viability, T/C", "setting": "second compound 3.16 µM, first compound 0.003 µM", "value": 89.3, "unit": "%"},
      {"measurement": "viability, T/C", "setting": "second compound 3.16 µM, first compound 0.00949 µM", "value": 45.8, "unit": "%"},
      {"measurement": "viability, T/C", "setting": "second compound 3.16 µM, first compound 0.03 µM", "value": 27.8, "unit": "%"},
      {"measurement": "viability, T/C", "setting": "second compound 3.16 µM, first compound 0.0949 µM", "value": 34.1, "unit": "%"},
      {"measurement": "viability, T/C", "setting": "second compound 3.16 µM, first compound 0.3 µM", "value": 36.7, "unit": "%"},
      {"measurement": "viability, T/C", "setting": "second compound 10 µM, first compound 0.000949 µM", "value": 96.5, "unit": "%"},
      {"measurement": "viability, T/C", "setting": "second compound 10 µM, first compound 0.003 µM", "value": 69.3, "unit": "%"},
      {"measurement": "viability, T/C", "setting": "second compound 10 µM, first compound 0.00949 µM", "value": 37.5, "unit": "%"},
      {"measurement": "viability, T/C", "setting": "second compound 10 µM, first compound 0.03 µM", "value": 24.7, "unit": "%"},
      {"measurement": "viability, T/C", "setting": "second compound 10 µM, first compound 0.0949 µM", "value": 32.5, "unit": "%"},
      {"measurement": "viability, T/C", "setting": "second compound 10 µM, first compound 0.3 µM", "value": 31.7, "unit": "%"}
    ]}
  ]
}
